# Residues, ends and D or L forms follow the SMILES beside them. *: point of attachment. X1 = O=C(COC1CC/C=C/CCC1)*
# Assays:
# Type in all cases: cell-based
# [1] = tested on: HEK293 cells; assay: Assessment of cell permeability of TCO-modified CRISPR suppressors with OG-Tz fluorescent probe; conditions: suppressor 30 μM 3 h, then OG-Tz 50 μM 2 h; for cellular fluorescence in the Oregon Green channel: confocal microscopy; for cell permeability: microscopy, confirmed by flow cytometry
# Procedure: The studies were carried out using the previously reported OG-Tz fluorescent probe. The chemical structure of OG-Tz is shown in Supplementary Fig. S7. OG-Tz was synthesized using the procedure reported by Devaraj and co-workers. The HEK293 cells were cultured in DMEM, containing 10% FBS and 1X Penicillin/Streptomycin, at 37°C, 5% CO2, and 95% humidity. The cells were seeded at a concentration of 1 × 10^5 cells per well in a six-well plate 24 h prior to the experiment. The cells were treated with the TCO-modified CRISPR suppressors (30 μM) for 3 h. Then, the media was replaced, and the cells were treated with OG-Tz (50 μM) for 2h. Afterwards, the cells were treated with trypsin for 5 min, collected by centrifugation at 1000 RPM, and suspended in PBS (1 mL). GFP expression was analyzed by flow cytometry. Data from 10^6 cells were acquired using a FACS Aria III cell sorter equipped with a 488 nm/blue coherent sapphire solid-state laser, 20 mW (BD Biosciences, San Jose, CA, USA). Data analyses were carried out using FlowJo software (Ashland, OR, USA), according to the manufacturer’s instructions. Parameters, such as MFI and the percentages of specific populations, were quantified by histogram analysis.
# HEK293 cells were grown to ∼70% confluence in 35 mm MatTek glass bottom dishes in DMEM supplemented with 10% […], penicillin, and streptomycin. The cells were treated with AAA-PNA-TCO, TTT-PNA-TCO, TCO-CPP-RRWQW, or TCO-CPP-RLRWR (30 μM) for 3 h. Afterwards, the cells were treated with OG-Tz (50 μM) for 2 h. Hoechst 33 258 dye was used for nuclear staining. Cellular fluorescence was analyzed using confocal microscopy. Microscopy experiments were carried out using a Zeiss LSM980 confocal microscope.
# [2] = tested on: GFP gene in GFP-expressing HEK293 cells; assay: CRISPR-Cas9 experiments in GFP-expressing HEK293 cells, flow cytometry; conditions: then suppressor 10 μM 24 h, 48 h growth, duplicate; for inactivation of sgRNA3-(U4Tz1) inside the cells (MFI of GFP): Cas9 mRNA + sgRNA3-(U4Tz1) 48 h; for inactivation of sgRNA3-(U4Tz2) inside the cells (MFI of GFP): Cas9 mRNA + sgRNA3-(U4Tz2) 48 h
# Procedure: CRISPR-Cas9 experiments were carried out following the procedure reported by Yin et al. The GFP-expressing HEK293 cells were purchased from GenTarget (cat.# SC001) and cultured in DMEM, containing 10% FBS and 1X Penicillin/Streptomycin, at 37°C, 5% CO2, and 95% humidity. The cells were seeded at a concentration of 1 × 10^5 cells per well in a six-well plate 24 h prior to the experiment. The cells were transfected with Cas9 mRNA (500 ng, Thermo Fisher Scientific), GFP-targeting sgRNAs (30 nM) using lipofectamine (1.5 μL) (Invitrogen™ LMRNA003) for 72 h in Opti-MEM reduced serum media. After 72 h, Opti-MEM was replaced with fresh DMEM, and the cells were grown for an additional 48 h. The cells were treated with trypsin for 5 min, collected by centrifugation at 1000 RPM, and suspended in PBS (1 mL). GFP expression was analyzed by flow cytometry. Data from 10^6 cells were acquired using a FACS Aria III cell sorter equipped with a 488 nm/blue coherent sapphire solid-state laser, 20 mW (BD Biosciences, San Jose, CA, USA). Data analyses were carried out using FlowJo software (Ashland, OR, USA), according to the manufacturer’s instructions. Parameters, such as MFI and the percentages of specific populations, were quantified by histogram analysis.
# Ability of TCO-modified CRISPR suppressors to control nuclease activity was examined as follows: GFP-expressing HEK239 cells were co-transfected with Cas9 mRNA (500 ng, Thermo Fisher Scientific), GFP-targeting sgRNAs (30 nM) using lipofectamine (1.5 μL) (Invitrogen™ LMRNA003) for 48 h. Then, AAA-PNA-TCO, TTT-PNA-TCO, TCO-CPP-RRWQW, and TCO-CPP-RLRWR (10 μM) were added to the media. After 24 h of treatment with the TCO-modified CRISPR suppressors, the media were replaced with fresh DMEM, and the cells were allowed to grow for an additional 48 h. The cells were treated with trypsin for 5 min, collected by centrifugation at 1000 RPM, and suspended in PBS (1 mL). GFP expression was analyzed by flow cytometry. Data from 10^6 cells were acquired using a FACS Aria III cell sorter equipped with a 488 nm/blue coherent sapphire solid-state laser, 20 mW (BD Biosciences, San Jose, CA, USA). Data analyses were carried out using FlowJo software (Ashland, OR, USA), according to the manufacturer’s instructions. Parameters, such as MFI and the percentages of specific populations, were quantified by histogram analysis.
# [3] = tested on: VEGFA in HEK293T cells; assay: Western blot analysis of CRISPR-Cas9 experiments targeting VEGFA; conditions: Cas9 mRNA + sgRNA4-(U4Tz1) or sgRNA4-(U4Tz2), suppressor 10 μM added after 48 h of transfection
# Procedure: Total protein lysate was harvested in RIPA buffer, and proteins separated by 10% SDS-PAGE were transferred to a PVDF membrane by using High MW protocol on Biorad Turbo wet transfer. Following transfer, membranes were blocked in 5% milk in PBST for 1 h at room temperature, washed three times in PBS with 0.1% (w/v) Tween 20 (PBS/T) for 10 min each and placed in primary antibody overnight at 4 °C. Primary antibody was rabbit VEGFA polyclonal antibody (1:2000 dilution, Cat.# 19003–1-AP, Proteintech) and α-tubulin monoclonal antibody (1:20 000 dilution, Cat.# 666031–1-Ig, Proteintech) in 5% BSA in PBS/T. Following overnight incubation, membranes were washed three times in PBS/T for 10 min each. Then membranes were incubated in a 1:10 000 dilution of goat anti-rabbit secondary (Jackson), goat-anti-mouse secondary in 5% milk, and PBS/T. Membranes were washed a final 3 times in PBS/T for 10 min each prior to being imaged on the BioRad ChemiDoc by using Thermo Scientific SuperSignal West Pico PLUS Chemiluminescent Substrate (BioRad, Cat.# 34 577).
# To assess the new constructs, HEK239T cells were co-transfected with the unmodified sgRNA4, sgRNA4-(U4Tz1), or sgRNA4-(U4Tz2) and commercially available mRNA that encodes the Cas9 gene for 72 h. […] VEGFA expression was once again analyzed by Western blot.
SMILES,cellular fluorescence in the Oregon Green channel [1],cell permeability [1],inactivation of sgRNA3-(U4Tz1) inside the cells (MFI of GFP) [2],inactivation of sgRNA3-(U4Tz2) inside the cells (MFI of GFP) [2],VEGFA expression after addition of suppressor [3]
N=C(N)NCCC[C@H](NC(=O)COC1CC/C=C/CCC1)C(=O)N[C@@H](CCCNC(=N)N)C(=O)N[C@@H](Cc1c[nH]c2ccccc12)C(=O)N[C@@H](CCC(N)=O)C(=O)N[C@@H](Cc1c[nH]c2ccccc12)C(=O)O (stereo partly shown) [TCO-CPP-RRWQW] (X1-RRWQW-OH),strongest fluorescence,good cell permeability,able to inactivate,able to inactivate,higher VEGFA expression
CC(C)C[C@H](NC(=O)[C@H](CCCNC(=N)N)NC(=O)COC1CC/C=C/CCC1)C(=O)N[C@@H](CCCNC(=N)N)C(=O)N[C@@H](Cc1c[nH]c2ccccc12)C(=O)N[C@@H](CCCNC(=N)N)C(=O)O (stereo partly shown) [TCO-CPP-RLRWR] (X1-RLRWR-OH),strongest fluorescence,good cell permeability,Analogous results,Analogous results,higher VEGFA expression
